Key:
H23R cells = assay: ROS production after CDDP exposure, resistant cells; assay type: cell-based, human
Experimental: FIG. 2. Viability assays and Reactive Oxygenated Species detection after CDDP treatment in H23 cell lines. (A) Viability to CDDP in H23S (left) and H23R (right) at 24, 48 and 72 hours and 6 concentrations of CDDP measured by MTT assay. (B) Increment of ROS production in H23S (left) and H23R (right) after 24, 48 and 72 hours of CDDP treatment. $: 72h (vs Basal).
H23/A2780 cells were cultured in 96-well black plates at density of 10,000 cells/well. Cells were treated with 6 different doses of CDDP for 24, 48 and 72 h in RPMI containing 10% FBS. Then treatments were removed and cells were loaded with the fluorescent probe 2′,7′-dichlorodihydrofluorescein diacetate (H2DCFDA) (10 μM) for 45 minutes in RPMI medium (FBS free). Cells were washed twice with RPMI (10% FBS), and fluorescence was recorded in a Fluostar Optima, each hour, over 4 hours period. […] ROS production was calculated dividing the mean H2DCFDA fluorescence by the mean viability. […] All experiments included cells treated with RPMI alone (Basal), and one well without cells as fluorescence basal.
H23/A2780 cells were cultured in 96-well black plates at density of 10,000 cells/well. […] Cells were washed twice with RPMI (10% FBS), and fluorescence was recorded in a Fluostar Optima at 520 nm after excitation at 485 nm. […] ROS production was calculated dividing the mean H2DCFDA fluorescence by the mean viability. […]

A2780S cells = assay: Response to CDDP after overexpression of miR-7 candidate target genes; assay type: cell-based, human
Experimental: (§1) cDNA plasmids transfection: a Myc-DDK-tagged ORF clone of MAFG, ELK-1 or ABCA1 and the negative control pCMV6 were used for in transient transfection (OriGene, USA). H23 and A2780 cells were plated onto 60-mm dishes at 6×10^5 cells/dish and transfected with a negative control, MAFG, ELK-1 or ABCA1 vectors (IDs: RC221486; RC208921 and RC221861) using jet-PEI DNA Transfection Reagent (PolyPlus Transfection, USA). For stable overexpression, lentiviruses carrying ELK-1 cDNA (Applied Biological Materials, Canada) were obtained by cotransfecting 15 μg of the specific lentiviral vector (pGIPZ-nonsilencing or pLenti-GIII-CMV-hELK-1-GFP-2A-Puro) and […] of each packaging vector (pCD-NL-BH and pMD2-VSV-G) in 10 million HEK 293T cells using Lipofectamine 2000 (Invitrogen, USA). Supernatants were taken at 48 hours posttransfection. A2780S cells were plated onto 60-mm dishes at 1×10^5 cells/dish and transduced with supernatant carrying nonsilencing or ELK-1 lentivirus, and polybrene was added (5 μg/ml).
(§2) To determine if the expression of the miR-7 candidate target genes was linked to CDDP response, we conducted their in transient overexpression in the sensitive cells comparing their response to CDDP with their parental resistant and sensitive cell lines, both transfected with an empty vector.

H23S cells = assay: as above; assay type: cell-based, human
Experimental: as §1, §2

[1] = system: human MAFG peptides M1-M10; assay: ELONA of aptamers with 10 MAFG peptides; assay type: binding; conditions: digoxigenin aptamer 20 nM, 1 μg peptide, absorbance at 405 nm
Experimental: FIG. 9. Characterization of the interaction of aptamers with MAFG. ELONAS in which the Aptamers bound to digoxigenin (20 nM) were incubated 1 hour at 37° C. with 10 peptides (1 μg) previously attached to the plate overnight. After incubating 1 hour with antidigoxigenin-Peroxidase 1/1000, ABTS was added and at 10 minutes the absorbance at 405 nm was measured.
In order to identify compounds of the invention and starting from the amino acidic sequence of human MAFG (NCBI Reference Sequence: NP_116100.2) of: SEQ ID NO 2: […]); we designed the following 10 peptides (please refer to table below):
Peptide M4, amino acids 49-68 corresponds to the basic MAFG region containing the tyrosine residue (Tyr64), as well as the arginine residue (Arg57) required for binding to the DNA, in addition to a nuclear localization signal.

[2] = versus sensitive line with empty vector

| Molecule | ROS production versus basal untreated cells (H23R cells; 3.00 μg/ml CDDP) [%] | ROS after treatment with the drug (H23R cells; Example 1) | response to CDDP after transient ELK-1 overexpression (A2780S cells; 48 h of exposure to the drug) | sensitivity to CDDP after stable ELK-1 overexpression (A2780S cells; lentiviral transduction) | CDDP resistance index after MAFG overexpression (A2780S cells; [2]) | CDDP RI after ABCA1 overexpression (H23S cells; versus empty vector, not statistically significant (p=0.796)) | CDDP-RI after MAFG overexpression (H23S cells; [2]) | interaction of aptamers with the 10 MAFG peptides by ELONA [1] |
| --- | --- | --- | --- | --- | --- | --- | --- | --- |
| [NH2][Pt]([NH2])([Cl])[Cl] [CDDP, Cisplatin] | 159 | no changes | did not change the response to CDDP | did not change the sensitivity to CDDP | 1.6 | 1.5 | 1.7 | – |
| GCGGATGAAGACTGGTGTCGATGCATGTGTAGTGCATTTCGAGCCGTTCTATTGGTGTGCCCTAAATACGAGCAAC (nucleic acid, chemistry not given here, DNA aptamer selected against the MAFG protein by SELEX) GCGGATGAAGACTGGTGTCGATGCATGTGTAGTGCATTTCGAGCCGTTCTATTGGTGTGCCCTAAATACGAGCAAC | – | – | – | – | – | – | – | recognized peptide M4 |

Reference: patent publication US20200270310A1, “MAFG AS A POTENTIAL THERAPEUTIC TARGET TO RESTORE CHEMOSENSITIVITY IN PLATINUM-RESISTANT CANCER CELLS” (FUNDACÓIN PARA LA INVESTIGACIÓN BIOMÉDICA DEL HOSPITAL …, priority 2017, published 2020)
